Experimental data from ChEMBL document CHEMBL5584311, “Antiviral Chlorinated Drimane Meroterpenoids from the Fungus Talaromyces pinophilus LD-7 and Their Biosynthetic Pathway” (J Nat Prod, 2024).

Key:
HL-60 = assay: Cytotoxicity against human HL-60 cells; assay type: functional
K562 = assay: Cytotoxicity against human K562 cells; assay type: functional
MGC-803 = assay: Cytotoxicity against human MGC-803 cells; assay type: functional
Bel-7402 = assay: Cytotoxicity against human Bel-7402 cells; assay type: functional
SH-SY5Y = assay: Cytotoxicity against human SH-SY5Y cells; assay type: functional
HCT-116 = assay: Cytotoxicity against human HCT-116 cells; assay type: functional
MDA-MB-231 = assay: Cytotoxicity against human MDA-MB-231 cells; assay type: functional
A549 = assay: Cytotoxicity against human A549 cells; assay type: functional
[1] = Cytotoxicity against human MCF7/ADM cells; assay type: functional
[2] = Cytotoxicity against human HO-8910 cells; assay type: functional
U-87 MG = assay: Cytotoxicity against human U87 cells; assay type: functional, U-87MG ATCC
NCI-H1975 = assay: Cytotoxicity against human NCI-H1975 cells; assay type: functional
[3] = tested on: Vesicular stomatitis virus; assay: Antiviral activity against Vesicular stomatitis virus infected in African green monkey Vero cells assessed as inhibition of cytopathic effect pre-infected with cells for 12 hrs followed by viral infection and measured after 24 hrs by fluorescence based CPE reduction method; assay type: functional, organism-based
Hepatitis C virus = assay: Antiviral activity against HCV infected in human Huh7.5 cells stably expressing firefly luciferase by microplate luminometer based analysis; assay type: functional, organism-based, Hepacivirus hominis

Question: Which results are given for `C[C@@H]1Cc2c3c(cc(O)c2C(=O)O1)O[C@]1(C)CCC[C@](C)([C@H]2C[C@@H](O)C2(C)C)[C@H]1C3`?
Answer: CC50 (HL-60): 3.35 µM; CC50 (K562): 3.35 µM; CC50 (MGC-803): 3.35 µM; CC50 (Bel-7402): 3.35 µM; CC50 (SH-SY5Y): 3.35 µM; CC50 (HCT-116): 3.35 µM; CC50 (MDA-MB-231): 3.35 µM; CC50 (A549): 3.35 µM; CC50 [1]: 3.35 µM; CC50 [2]: 3.35 µM; CC50 (U-87 MG): 3.35 µM; CC50 (NCI-H1975): 3.35 µM

Question: With `CC(C)C1=CC[C@@]2(C)C(=O)CC[C@@]3(C)Oc4cc(O)c5c(c4C[C@@]32O1)[C@@H](O)[C@@H](C)OC5=O` as the compound, how does the IC50 [3] read?
Answer: Its IC50 is 0.97 µM.

Question: Which IC50 [3] does the source give for `CC(C)[C@@]12CC[C@]3(C)[C@]4(Cc5c(cc(O)c6c5[C@@H](O)[C@@H](C)OC6=O)O[C@]4(C)CC[C@]3(O)O1)O2` here?
Answer: The IC50 was 0.43 µM.

Question: With `CC(C)[C@@]12CC[C@]3(C)[C@]4(Cc5c6c(c(O)c(Cl)c5O[C@]4(C)CC[C@]3(O)O1)C(=O)O[C@H](C)C6)O2` as the compound, how does the IC50 [3] read?
Answer: Its IC50 is 0.18 µM.

Question: Which IC50 [3] does the source give for `CC(=O)O[C@@H]1c2c3c(cc(O)c2C(=O)O[C@@H]1C)O[C@]1(C)CC[C@@H]2O[C@@]4(C(C)C)CC[C@]2(C)[C@]1(C3)O4` here?
Answer: Its IC50 is 0.49 µM.

Question: Which IC50 (Hepatitis C virus) does the source give for `CC1=C(O)C(=O)[C@@]23C(C)CC[C@@H]2[C@H](C)CO[C@]32Oc3cc(O)cc(CO)c3C=C12` (stereo not given in full) here?
Answer: The IC50 was 9.5 µM.

Question: With `CC(=O)O[C@@H]1c2c3c(cc(O)c2C(=O)O[C@@H]1C)O[C@]1(C)CCC(=O)[C@]2(C)CC=C(C(C)C)O[C@]12C3` as the compound, how does the IC50 [3] read?
Answer: The IC50 was 0.32 µM.

Question: Which IC50 [3] does the source give for `CC(=O)O[C@@H]1c2c3c(cc(O)c2C(=O)O[C@@H]1C)O[C@]1(C)CC[C@]2(O)C(C)(C)[C@@]4(O)CC[C@]2(C)[C@]1(C3)O4` here?
Answer: Its IC50 is 0.19 µM.

Question: For `CC(C)[C@]12CC[C@@]3(C)[C@H](CC[C@@]4(C)Oc5cc(O)c6c(c5C[C@@]43O1)C[C@@H](C)OC6=O)O2`, which IC50 [3] is on record?
Answer: The IC50 was 0.91 µM.

Question: For `C[C@@H]1Cc2c3c(cc(O)c2C(=O)O1)O[C@]1(C)CC[C@H]2C(C)(C)C(=O)CC[C@]2(C)[C@H]1C3`, which IC50 [3] is on record?
Answer: The IC50 was 0.023 µM.

Question: For `CC(=O)O[C@@H]1c2c3c(c(Cl)c(O)c2C(=O)O[C@@H]1C)O[C@]1(C)CCC(=O)[C@]2(C)CC=C(C(C)C)O[C@]12C3`, which IC50 [3] is on record?
Answer: Its IC50 is 0.28 µM.

Question: With `CC(=O)O[C@@H]1c2c3c(c(Cl)c(O)c2C(=O)O[C@@H]1C)O[C@]1(C)CC[C@@H]2O[C@@]4(C(C)C)CC[C@]2(C)[C@]1(C3)O4` as the compound, how does the IC50 [3] read?
Answer: Its IC50 is 0.082 µM.

Question: Which IC50 [3] does the source give for `C[C@@H]1Cc2c3c(cc(O)c2C(=O)O1)O[C@]1(C)CC[C@]2(O)C(C)(C)[C@@]4(O)CC[C@]2(C)[C@]1(C3)O4` here?
Answer: Its IC50 is 0.13 µM.

Question: With `C[C@@H]1Cc2c3c(c(Cl)c(O)c2C(=O)O1)O[C@]1(C)CC[C@H]2C(C)(C)C(=O)CC[C@]2(C)[C@@]1(O)C3` as the compound, how does the IC50 [3] read?
Answer: Its IC50 is 0.015 µM.

Question: With `C[C@@H]1Cc2c3c(c(Cl)c(O)c2C(=O)O1)O[C@]1(C)CC[C@]2(O)C(C)(C)[C@@]4(O)CC[C@]2(C)[C@]1(C3)O4` as the compound, how does the IC50 [3] read?
Answer: Its IC50 is 0.083 µM.

Question: With `CC(C)[C@]12CC[C@@]3(C)[C@H](CC[C@@]4(C)Oc5c(Cl)c(O)c6c(c5C[C@@]43O1)C[C@@H](C)OC6=O)O2` as the compound, how does the IC50 [3] read?
Answer: Its IC50 is 0.018 µM.

Question: With `CC(=O)O[C@@H]1c2c3c(cc(O)c2C(=O)O[C@@H]1C)O[C@]1(C)CC[C@]2(O)O[C@@]4(C(C)C)CC[C@]2(C)[C@]1(C3)O4` as the compound, how does the IC50 [3] read?
Answer: The IC50 was 0.57 µM.

Question: For `CC(=O)O[C@@H]1c2c3c(c(Cl)c(O)c2C(=O)O[C@@H]1C)O[C@]1(C)CC[C@]2(O)O[C@@]4(C(C)C)CC[C@]2(C)[C@]1(C3)O4`, which IC50 [3] is on record?
Answer: Its IC50 is 0.26 µM.

Question: With `NC(=O)c1ncn([C@@H]2O[C@H](CO)[C@@H](O)[C@H]2O)n1` [RIBAVIRIN] as the compound, how does the IC50 [3] read?
Answer: The IC50 was 0.046 µM.
